In the supplement of paper PMC10307832 one finds relative viability data, which are given here for 5 cell lines.

Common to all, as to assay: relative viability (nuclei count vs DMSO), 5 days (fraction); higher = more cells survive
Compound in assay [1]: CC(=O)Nc1cccc(-n2c(=O)n(C3CC3)c(=O)c3c(Nc4ccc(I)cc4F)n(C)c(=O)c(C)c32)c1 [Trametinib] + CC(=O)c1c(C)c2cnc(Nc3ccc(N4CCNCC4)cn3)nc2n(C2CCCC2)c1=O [Palbociclib] (partner 0.5 µM)
In short, it runs like this:
(§1)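 Values are medians from duplicate plates. Each reflects relative viability, defined as the nuclei count of treated wells over that of vehicle wells. Lung cancer cell lines in 1536-well plates were pin-tool dosed one day after seeding with one drug alone or with a fixed anchor-drug dose plus five library-drug doses (not always all listed) in √10 steps, then fixed, stained and imaged at 4× after 5 days.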

Compound in assay [2]: CC(=O)Nc1cccc(-n2c(=O)n(C3CC3)c(=O)c3c(Nc4ccc(I)cc4F)n(C)c(=O)c(C)c32)c1 [Trametinib] + NC(=O)Nc1cc(-c2cccc(F)c2)sc1C(=O)N[C@H]1CCCNC1 [AZD7762] (partner 0.2 µM)
In short, it runs like this:
as §1

Compound in assay [3]: CN1C=C(C2=CC=CC=C21)/C=C\3/C4=C(C=CC=N4)NC3=O + Cc1cc(Nc2cc(N3CCN(C)CC3)nc(Sc3ccc(NC(=O)C4CC4)cc3)n2)n[nH]1 [Tozasertib] (partner 0.1 µM)
In short, it runs like this:
as §1

Compound in assay [4]: CC(=O)Nc1cccc(-n2c(=O)n(C3CC3)c(=O)c3c(Nc4ccc(I)cc4F)n(C)c(=O)c(C)c32)c1 [Trametinib] + O=C(CCCCCCC(=O)Nc1ccccc1)NO [Vorinostat] (partner 1 µM)
In outline: as §1

Take NCI-H2126: the relative viability in assay [1] (first compound 0.0025 µM) stood at 0.331; in assay [1] (first compound 0.007906 µM) it was 0.346; in assay [1] (first compound 0.025 µM) it was 0.33; in assay [1] (first compound 0.07906 µM), 0.304; in assay [1] (first compound 0.25 µM) it was 0.349; in assay [2] (first compound 0.0025 µM), 1.05. Also, the relative viability in assay [2] (first compound 0.007906 µM) turned out to be 0.929; in assay [2] (first compound 0.025 µM), 0.632; in assay [2] (first compound 0.07906 µM), 0.766; in assay [2] (first compound 0.25 µM), 0.753; in assay [3] (first compound 0.02 µM), 0.85; in assay [3] (first compound 0.06325 µM), 0.756. Besides, the relative viability in assay [3] (first compound 0.2 µM) was found to be 0.807; in assay [3] (first compound 0.6325 µM), 0.807; in assay [3] (first compound 2 µM), 0.836; in assay [4] (first compound 0.0025 µM), 0.701; in assay [4] (first compound 0.007906 µM) it was 0.514; in assay [4] (first compound 0.025 µM), 0.353. The results for the relative viability in assay [4] (first compound 0.07906 µM) and in assay [4] (first compound 0.25 µM) were 0.6 and 0.446, respectively.
Turning to NCI-H2170, the relative viability in assay [1] (first compound 0.0025 µM) is 0.4; in assay [1] (first compound 0.007906 µM), 0.419; in assay [1] (first compound 0.07906 µM) it was 0.399; in assay [1] (first compound 0.25 µM), 0.342; in assay [2] (first compound 0.0025 µM), 0.878; in assay [2] (first compound 0.007906 µM) it was 0.84. The relative viability in assay [2] (first compound 0.07906 µM) was found to be 0.748; in assay [2] (first compound 0.25 µM), 0.556; in assay [3] (first compound 0.02 µM), 0.549; in assay [3] (first compound 0.06325 µM), 0.721; in assay [3] (first compound 0.2 µM), 0.737; in assay [3] (first compound 0.6325 µM), 0.79. Also, the relative viability worked out at 0.72 in assay [3] (first compound 2 µM); 0.821 in assay [4] (first compound 0.0025 µM); 0.723 in assay [4] (first compound 0.007906 µM); 0.73 in assay [4] (first compound 0.07906 µM); 0.803 in assay [4] (first compound 0.25 µM).
As for NCI-H2342, the relative viability came to 0.48 in assay [1] (first compound 0.0025 µM); 0.511 in assay [1] (first compound 0.007906 µM); 0.425 in assay [1] (first compound 0.025 µM); 0.446 in assay [1] (first compound 0.07906 µM); 0.477 in assay [1] (first compound 0.25 µM); 0.487 in assay [2] (first compound 0.0025 µM). In addition, the relative viability in assay [2] (first compound 0.007906 µM) was 0.437; in assay [2] (first compound 0.025 µM) it was 0.318; in assay [2] (first compound 0.07906 µM) it was 0.411; in assay [2] (first compound 0.25 µM) it was 0.559; in assay [3] (first compound 0.02 µM), 0.492; in assay [3] (first compound 0.06325 µM), 0.437. Also, the relative viability in assay [3] (first compound 0.2 µM) is 0.556; in assay [3] (first compound 0.6325 µM) it was 0.438; in assay [3] (first compound 2 µM), 0.505; in assay [4] (first compound 0.0025 µM), 0.727; in assay [4] (first compound 0.007906 µM), 0.793; in assay [4] (first compound 0.025 µM), 0.488. Moreover, the relative viability in assay [4] (first compound 0.07906 µM) was 0.685; in assay [4] (first compound 0.25 µM) it was 0.68.
For NCI-H2347, the relative viability in assay [1] (first compound 0.0025 µM) came to 0.372; in assay [1] (first compound 0.007906 µM), 0.363; in assay [1] (first compound 0.025 µM) it was 0.324; in assay [1] (first compound 0.07906 µM) it was 0.316; in assay [1] (first compound 0.25 µM) it was 0.291; in assay [2] (first compound 0.0025 µM), 0.642. Moreover, the relative viability stood at 0.41 in assay [2] (first compound 0.007906 µM); 0.296 in assay [2] (first compound 0.025 µM); 0.29 in assay [2] (first compound 0.07906 µM); 0.296 in assay [2] (first compound 0.25 µM); 0.421 in assay [3] (first compound 0.06325 µM); 0.556 in assay [3] (first compound 0.2 µM). Also, the relative viability in assay [3] (first compound 0.6325 µM) is 0.512; in assay [3] (first compound 2 µM), 0.681; in assay [4] (first compound 0.0025 µM) it was 0.467; in assay [4] (first compound 0.007906 µM) it was 0.358; in assay [4] (first compound 0.025 µM), 0.289; in assay [4] (first compound 0.07906 µM) it was 0.329. In addition, in assay [4] (first compound 0.25 µM), the relative viability was 0.358.
Regarding NCI-H2405, the relative viability in assay [1] (first compound 0.0025 µM) came out at 0.527; in assay [1] (first compound 0.007906 µM), 0.58; in assay [1] (first compound 0.025 µM) it was 0.419; in assay [1] (first compound 0.25 µM), 0.281; in assay [2] (first compound 0.0025 µM), 0.566; in assay [2] (first compound 0.007906 µM), 0.616. For the same cell line, the relative viability is 0.425 in assay [2] (first compound 0.025 µM); 0.401 in assay [2] (first compound 0.25 µM); 0.742 in assay [3] (first compound 0.02 µM); 0.717 in assay [3] (first compound 0.06325 µM); 0.67 in assay [3] (first compound 0.2 µM); 0.721 in assay [3] (first compound 0.6325 µM). Moreover, the relative viability in assay [3] (first compound 2 µM) is 0.731; in assay [4] (first compound 0.0025 µM) it was 0.985; in assay [4] (first compound 0.007906 µM), 0.853; in assay [4] (first compound 0.025 µM) it was 0.649; in assay [4] (first compound 0.25 µM), 0.601.
